In ChEMBL document CHEMBL2074269, “The interaction of n-tetraalkylammonium compounds with a human organic cation transporter, hOCT1” (J Pharmacol Exp Ther, 1999):
pIC50: −log10 of the molar value.

Target: T1, Solute carrier family 22 member 1 (Homo sapiens, UniProt O15245)
T1 sequence (O15245 whole entry): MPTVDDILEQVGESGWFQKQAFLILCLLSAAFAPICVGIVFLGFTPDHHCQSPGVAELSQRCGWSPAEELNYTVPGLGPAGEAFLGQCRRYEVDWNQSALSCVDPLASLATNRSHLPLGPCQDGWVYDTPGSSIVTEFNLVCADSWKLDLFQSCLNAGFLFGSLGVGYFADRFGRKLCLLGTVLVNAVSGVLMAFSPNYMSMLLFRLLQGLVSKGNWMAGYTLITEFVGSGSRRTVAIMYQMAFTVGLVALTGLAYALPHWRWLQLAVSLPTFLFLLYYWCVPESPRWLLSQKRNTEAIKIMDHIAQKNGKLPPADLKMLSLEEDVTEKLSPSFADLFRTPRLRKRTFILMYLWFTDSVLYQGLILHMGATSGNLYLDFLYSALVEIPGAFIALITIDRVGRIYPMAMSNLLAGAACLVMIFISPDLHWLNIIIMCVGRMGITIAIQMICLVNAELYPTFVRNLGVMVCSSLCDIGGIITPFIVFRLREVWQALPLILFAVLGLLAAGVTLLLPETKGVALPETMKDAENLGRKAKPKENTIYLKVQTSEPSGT
Format: functional, cell-based, HeLa

Row | Compound | pIC50
1 | CCCC[N+](CCCC)(CCCC)CCCC [TETRABUTHYLAMMONIUM] | 4.28
2 | CCCCCC[N+](CCCCCC)(CCCCCC)CCCCCC [TETRAHEXYLAMMONIUM] | 5.52
3 | CCC[N+](CCC)(CCC)CCC [TETRAPROPYLAMMONIUM] | 4.05
